Measurements published in BindingDB's records for PubMed 37122539 (Virginia Tech, 2023).
Converted amounts (≈) assume the structure as drawn.

System: Enterococcus faecalis
Test: Antibacterial activity against Enterococcus faecalis ATCC 29212 incubated for 16 hrs by broth microdilution method

Row | Structure (SMILES) | IC50 [µg/mL]
1 | CN(CC[C@H](N)CC(=O)N[C@H]1C=C[C@H](n2ccc(N)nc2=O)O[C@@H]1C(N)=O)C(=N)N | 13 (≈ 30.8 µM)
2 | CCOC(=O)[C@H]1O[C@@H](n2ccc(N)nc2=O)C=C[C@@H]1NC(=O)C[C@@H](N)CCN(C)C(=N)N | 9.9 (≈ 22 µM)
3 | CCCCCCOC(=O)[C@H]1O[C@@H](n2ccc(N)nc2=O)C=C[C@@H]1NC(=O)C[C@@H](N)CCN(C)C(=N)N | 11 (≈ 21.7 µM)
4 | CN(CC[C@H](N)CC(=O)N[C@H]1C=C[C@H](n2ccc(N)nc2=O)O[C@@H]1C(=O)OCCc1ccccc1)C(=N)N | 6.9 (≈ 13.1 µM)
5 | CCCOC(=O)[C@H]1O[C@@H](n2ccc(N)nc2=O)C=C[C@@H]1NC(=O)C[C@@H](N)CCN(C)C(=N)N | 11 (≈ 23.7 µM)
6 | CN(CC[C@H](N)CC(=O)N[C@H]1C=C[C@H](n2ccc(N)nc2=O)O[C@@H]1C(=O)OCc1ccccc1)C(=N)N | 15 (≈ 29.3 µM)
7 | C#CCCCOC(=O)[C@H]1O[C@@H](n2ccc(N)nc2=O)C=C[C@@H]1NC(=O)C[C@@H](N)CCN(C)C(=N)N | 12 (≈ 24.6 µM)
8 | CN(CC[C@H](N)CC(=O)N[C@H]1C=C[C@H](n2ccc(N)nc2=O)O[C@@H]1C(=O)O)C(=N)N | 53 (≈ 125 µM)
9 | COC(=O)[C@H]1O[C@@H](n2ccc(N)nc2=O)C=C[C@@H]1NC(=O)C[C@@H](N)CCN(C)C(=N)N | 9.2 (≈ 21.1 µM)
10 | CCCCOC(=O)[C@H]1O[C@@H](n2ccc(N)nc2=O)C=C[C@@H]1NC(=O)C[C@@H](N)CCN(C)C(=N)N | 16 (≈ 33.4 µM)
